Test results: patent US20070207119A1, “Histone deacetylase inhibitor enhancement of trail-induced apoptosis” (University of South Florida, priority 2002, published 2007)

Experiments:
[1] = system: HDAC activity in the HeLa cell nuclear extracts; conditions: LAQ824 5 to 250 nM, previously reported; cited from earlier work
DR5 = test: Cell-membrane expression of DR5 in primary AML cells, anti-DR5 staining and flow cytometry; type: cell-based, human; conditions: primary AML sample, baseline 17.5%
Experimental: FIG. 11 LAQ824 induces histone acetylation, increases DR4 and DR5 levels, as well as down regulates FLIPS and FLIPL in primary AML cells. A. AML cells were treated with LAQ824 at the indicated concentrations for 24 hours. Following this histone protein were isolated, and the Histone H3 acetylation was detected by Western blot analysis using the anti-acetylated Histone H3 antibody. Total cell lysates of the untreated and LAQ824 treated cells were also used for immunoblot analyses of DR5, DR4, FLIPL and FLIPS. β-actin was used as the loading control. B. Bone marrow mononuclear cells from a patient with AML were exposed to 100 or 250 nM of LAQ824 for 24 hours. Following this, cell-membrane expression of DR5 was determined by staining with anti-DR5 antibody and evaluated by flow cytometry. Flow cytometric histograms in panels a to d are from cells treated with: a. Isotype control, b. untreated control cells, c. 100 nM LAQ824 and d. 250 nM LAQ824.
The sensitivity of fresh AML cells procured from patients with relapsed AML to Apo-2L/TRAIL and/or LAQ824-induced apoptosis was next to be determined. […] In every sample evaluated, co-treatment with LAQ824 and Apo-2L/TRAIL induced more apoptosis than treatment with either agent alone. […] Based on the availability adequate sample, we also determined the effect of LAQ824 on the determinants of Apo-2L/TRAIL-induced DISC.

SKW 6.4 cells = test: Apoptosis of SKW 6.4 cells, annexin V staining and flow cytometry; type: cell-based, human; conditions: 10 to 200 nM LAQ824, 24 hours, less than in Jurkat
Experimental: (§1) FIG. 2 LAQ824 induces accumulation in the G1 phase of the cell cycle and apoptosis. SKW 6.4 (A) and Jurkat (B) cells were treated with the indicated concentration of LAQ824 for 24 hours. Following this, the cell cycle status and the percentage of apoptotic cells were determined by flow cytometry. Values represent mean±SE of 3 experiments. FIG. 8 Treatment LAQ824 enhances Apo-2L/TRAIL induced DISC assembly, DISC activity and apoptosis. A. SKW 6.4 and B. Jurkat cells were treated with LAQ824 and/or Apo-2L/TRAIL at the indicated doses for 24 hours. Following this, the percentage of apoptotic cells was determined by annexin-V staining followed by flow cytometry. Values represent mean±SE of 3 experiments. C. Following treatment of Jurkat cells with LAQ824 (20 nM) and/or Apo-2L/TRAIL (10 ng/ml) for 24 hours, either the total cell lysates were utilized for immunoblot analyses of caspase-8, BID, caspase-3 and PARP, or the cytosolic (S100) fractions of cells were either used for immunoblot analysis of cytochrome (cyt) c, Omi or Smac (D), β-Actin expression was used as the loading control. E. SKW 6.4 cells were treated with 100 nM LAQ824 for 24 hours or 100 ng/ml Apo-2L/TRAIL for 2 hours, or LAQ824 followed by Apo-2L/TRAIL. […]

DR5 mRNA = test: Multi-probe RNase protection assay, DR5 mRNA; type: cell-based, human; conditions: SKW 6.4 and Jurkat cells, 100 nM LAQ824, 8 or 16 hours; densitometry, GAPDH mRNA as loading control
Experimental: (§2) FIG. 6 Treatment with LAQ824 increases the mRNA expression of DR4 and DR5, and increases the association of the DR5 gene with the acetylated histone H3 and H4 in chromatin. A. After exposure of SKW 6.4 and Jurkat cells to 100 nM LAQ824 for the indicated time intervals (hours), mRNA expression levels of the indicated genes were determined using a Riboquant Multi-Probe RNase Protection Assay. B. Soluble chromatin was immunoprecipitated with anti-acetylated histone H3 and H4 antibodies. PCR primers for the DR5 promoter were used to amplify the DNA isolated from the immunoprecipitates. PCR products were scanned and quantified. […] The ratio between input DNA and precipitated DNA was calculated for each treatment.
(§3) A RiboQuant Multi-Probe RNase Protection Assay System was used according to the manufacturer's instructions (BD/PharMingen, San Diego, Calif.), and as previously described. […] The remaining probes were resolved on 5% denaturing polyacrylamide gel and analyzed by autoradiography.
(§4) Next, the effect of LAQ824 on the mRNA levels of c-FLIPL, DR5, DR4 and Apo-2L/TRAI, utilizing a multi-probe RNAse protection assay and estimated by densitometry with GAPDH mRNA as the loading control was determined. […] In contrast to the increase in the DR5 and DR4 mRNA levels, exposure to LAQ824 for eight hours inhibited the mRNA level of c-FLIPL by 75%, as determined by an RT-PCR assay (FIG. 7A). […]

Jurkat cells = test: Apoptosis of Jurkat cells, annexin V staining and flow cytometry; type: cell-based, human
Experimental: as §1

FAS mRNA = test: Multi-probe RNase protection assay, FAS mRNA; type: cell-based, human; conditions: SKW 6.4 and Jurkat cells, 100 nM LAQ824, 8 or 16 hours; densitometry, GAPDH mRNA as loading control
Experimental: as §2, §3, §4

DR4 mRNA = test: Multi-probe RNase protection assay, DR4 mRNA; type: cell-based, human; conditions: only in SKW 6.4 cells, 100 nM LAQ824, 8 or 16 hours
Experimental: as §2, §3, §4

## O=C(/C=C/c1ccc(CN(CCO)CCc2c[nH]c3ccccc23)cc1)NO [LAQ824]
[1]
  in vitro HDAC activity: inhibits the in vitro HDAC activity in a dose dependent manner
DR5; 100 nM LAQ824, 24 hours
  DR5 expression on the cell membrane, % of cells: 33.2%
DR5; 250 nM LAQ824, 24 hours
  DR5 expression on the cell membrane, % of cells: 62.4%
SKW 6.4 cells
  induction of apoptosis (annexin V positive): induced apoptosis in a dose dependent manner
DR5 mRNA
  increase of mRNA expression of DR5: 2.4 fold
Jurkat cells; 100 or 200 nM LAQ824, 24 hours, data not shown
  apoptosis, % of Jurkat cells: more than 90%
Jurkat cells; Jurkat cells, 10 to 200 nM LAQ824, 24 hours, more than in SKW 6.4
  induction of apoptosis (annexin V positive): induced apoptosis in a dose dependent manner
FAS mRNA
  increase of mRNA expression of FAS: 1.5 fold
DR4 mRNA
  increase of DR4 mRNA levels: 2.2 fold
